Experimental data reported in ChEMBL document CHEMBL6103638, “Dual Modulator of FXR and HSD17B13: Revitalizing FXR Therapies in MASH” (J Med Chem, 2025).

Biological target: T1, Bile acid receptor (Homo sapiens, UniProt Q96RI1)
T1 sequence (Q96RI1 whole entry): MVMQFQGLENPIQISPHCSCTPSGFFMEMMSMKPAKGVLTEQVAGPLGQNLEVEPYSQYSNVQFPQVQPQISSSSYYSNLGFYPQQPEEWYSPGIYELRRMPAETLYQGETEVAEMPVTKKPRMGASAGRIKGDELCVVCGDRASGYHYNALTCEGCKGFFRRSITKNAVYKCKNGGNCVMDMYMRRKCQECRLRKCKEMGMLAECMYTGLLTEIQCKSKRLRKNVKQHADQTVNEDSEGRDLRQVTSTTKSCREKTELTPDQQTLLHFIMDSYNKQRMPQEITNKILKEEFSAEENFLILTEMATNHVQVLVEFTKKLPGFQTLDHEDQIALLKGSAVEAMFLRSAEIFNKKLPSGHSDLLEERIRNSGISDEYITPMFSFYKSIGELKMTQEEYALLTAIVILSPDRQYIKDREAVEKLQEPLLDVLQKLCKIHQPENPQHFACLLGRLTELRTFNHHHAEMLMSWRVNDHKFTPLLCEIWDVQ
Assay: Agonist activity at FXR (unknown origin)

- EC50: 780 nM
Structure (SMILES): CC(C)(C)c1ccc(-n2cnc3c(NC(=O)Cc4ccc(C(=O)O)cc4)cccc32)cc1
